Measured values taken from patent US20250241890A1, “1,4-DIUREAS AND 1,4-DITHIOUREAS AND USES THEREOF” (Purdue Research Foundation, priority 2024, published 2025).

Biological target: T1, α-synuclein (α-syn) (Homo sapiens, UniProt P37840)
T1 construct: purchased rPeptide (Watkinsville, GA)
Experiment: PICUP assay of α-syn oligomer formation
Assay type: biochemical
Conditions: α-syn 60 μM, compound 50 μM (~molar ratio 1:1)
Procedure: Chemical and peptide source. Dimethylsulfoxide (DMSO) and thioflavin-T (ThT) were purchased from Alfa Aesar (Ward Hill, MA). Recombinant α-synuclein (α-syn) was procured from rPeptide (WatKinsville, GA). The recombinant p-tau isoform 1N4R was prepared as published previously (Fortin et al. 2021, Sui et al. 2015, Liu et al. 2020). Concerning the preparation of tau 0N4R, a bacterial expression plasmid consisting of the vector pET30a carrying a cDNA encoding the human Tau 0N4R isoform was a kind gift of Dr. Benjamin Wolozin (Boston University). E. coli stock (Rosetta BL21 E. coli (CamR) containing pET30a [0N4R tau wt] (KanR)) was grown in LB medium supplemented with kanamycin (50 μg/mL) and chloramphenicol (50 μg/mL). Protein over-expression was induced by the addition of 1 mM IPTG for ˜18 hours at 37° C., and cells were pelleted by centrifugation at 6,000 g for 15 minutes at 4° C. The cells were resuspended in lysis buffer (10 mM Hepes, pH 7.4, 50 mM NaCl, 1 mM MgCl2, 1 mM PMSF, 1× PIC, and 0.5 mM DTT) and lysed by sonication at 30 seconds “On” and 1 minute “Off” at ˜30-45% power for ˜3-5 minutes. Lysate was centrifuged at 10,000 rpm for 10 minutes at 4° C., and supernatant was transferred with 7.8 ml (total) of 3M NaCl. The lysate was incubated for 10 minutes in 80° C. water bath, then cooled for 10 minutes in an ice bath. The lysate was centrifuged at 10,000 rpm at 4° C. for 10 minutes, and the supernatant was transferred to a new tube. The supernatant was dialyzed overnight against cation exchange buffer (50 mM MES, […], 1 mM DTT, pH 6.0). The dialysate was loaded onto a HiPrep SP HP column, and proteins were eluted with a linear gradient ranging from 50 mM to 1 M NaCl. General Characterizations. ^1H and ^13C {1H} NMR spectra were recorded using a 500 MHz Bruker instrument working at a frequency of 500 MHz for ^1H and at 126 MHz for ^13C. Chemical shifts are reported in ppm using residual solvent resonances as internal reference (δ 2.50 and δ 39.51 for ^1H and ^13C in DMSO-d6, respectively). ^1H NMR data are reported as follows. b=broad, s=singlet, d=doublet, t=triplet, q=quartet, and m=multiplet. Coupling constants are given in hertz. The purity of all compounds and synthetic intermediates was judged to be 95% or better based on ^1H NMR. IR measurements were performed in a Nicolet FTIR as thin films in the Purdue Drug Discovery facility. High-resolution mass spectrometry analyses were conducted at the MSU Mass Spectrometry facility. Thioflavin fluorescence assays. Thioflavin fluorescence assays were used to monitor fibril formation of commercial recombinant α-syn at a final concentration of 2 μM and treated with control DMSO and different compounds. The recombinant α-syn obtained from rPeptide has been validated with proper quality control to confirm the monomeric state of the protein. Kinetics of fibril formation have been performed using ThT as published previously.^6, 12, 13, 24 The fluorescence emission experiments were performed with the excitation and emission wavelengths set at 440 and 485 nm, respectively, with a Synergy HT multi-mode microplate reader (BioTek, Winooski, VT). Samples were measured in three replicates. Experiments were repeated three times using different α-syn stock solutions. For each time point, arbitrary units of fluorescence were calculated from the mean values normalized against the maximum value. The percentage of fluorescence intensity at the plateau phase in Table 1 was expressed as mean #SEM. Concerning the dose response curve depicted in FIG. 2, the data were plotted using GraphPad Prism. Photo-induced Cross-linking of Unmodified Proteins (PICUP) Assay. […] Different compounds were added to the protein solution at a final concentration of 50 μM, resulting in a molar ratio of 1:1. PICUP assays were performed with the following controls: samples without light exposition, without Ru(bpy) or ammonium persulfate, and without compound (i.e., 0.125% DMSO). […]

## S=C(Nc1ccc(NC(=S)Nc2cccc3cc[nH]c23)cc1)Nc1cccc2cc[nH]c12 [Compound 8, 3-(1H-indol-7-yl)-1-(4-{[(1H-indol-7-yl)carbamothioyl]amino}phenyl)thiourea]
  effect on α-syn oligomer formation (high molecular weight bands) by PICUP: reduced α-syn oligomer formation
  percentage of oligomer reduction (PICUP, relative pixel density): 91.2%

## S=C(Nc1ccc(NC(=S)Nc2cccc3[nH]ccc23)cc1)Nc1cccc2[nH]ccc12 [Compound 2, 3-(1H-indol-4-yl)-1-(4-{[(1H-indol-4-yl)carbamothioyl]amino}phenyl)thiourea]
  effect on α-syn oligomer formation (high molecular weight bands) by PICUP: reduced α-syn oligomer formation
  percentage of oligomer reduction (PICUP, relative pixel density): 84.2%

## O=C(Nc1ccc(NC(=O)Nc2cccc3[nH]ccc23)cc1)Nc1cccc2[nH]ccc12 [Compound 1, 3-(1H-indol-4-yl)-1-(4-{[(1H-indol-4-yl)carbamoyl]amino}phenyl)urea]
  percentage of oligomer reduction (PICUP, relative pixel density): 52.6%
